target: T1, soluble human BACE (Homo sapiens, UniProt P56817); assay: BACE activity Cell Free Assay (ELISA of cleaved synthetic APP substrate); format: biochemical
T1 construct: cells secreting human recombinant soluble BACE; made in house; conditioned medium
Method: A synthetic APP substrate that can be cleaved by beta˜secretase and having N-terminal biotin is used to assay beta-secretase activity in the presence or absence of the inhibitory compounds. […] The substrate and test compounds are added to 384 well polypropylene plates. The reaction is initiated by the addition of soluble BACE enzyme to a final volume of 12.5 μL per well. The final assay conditions are: 0.001˜300 μM compound inhibitor, 0.05M sodium acetate (pH 4.5), 3 μM substrate, soluble human BACE, and 2% DMSO. Concentrated conditioned media from cells secreting human recombinant soluble BACE was titrated to provide a source of BACE enzyme. The cell media can be used as either a crude BACE prep or BACE can be purified using any number of techniques, including immobilized BACE inhibitor purification columns. The assay mixture is incubated for 1 hour at 37° C., and the reaction is quenched by the addition of an equal volume of 0.1M Tris, pH 8. Half of the quenched mix is incubated on clear streptavidin coated 384 well polystyrene plates for 1 hour. An ELISA is then performed using an in˜house antibody that specifically recognizes the new C˜terminus created after cleavage by BACE. […] (These polyclonal antibodies were raised in rabbits by immunizing with antigen comprised of six amino acid residues present at the carboxy terminus of the wild-type soluble APPbeta sequence (NH2-ISEVKM-COOH) or seven amino acid residues present at the carboxy terminus of the Swedish mutation at the beta cleavage site (NH2-EISEVNL˜COOH) conjugated to keyhole limpet hemacyanin by methods known to those skilled in the art.) A secondary anti˜species Horseradish Peroxidase (HRP) conjugated antibody is then utilized. The readout, following assay development with TMB substrate and quenching with 0.09M sulfuric acid, is absorbance at 450 nm.

T1 sequence (P56817 46-457 limits assumed): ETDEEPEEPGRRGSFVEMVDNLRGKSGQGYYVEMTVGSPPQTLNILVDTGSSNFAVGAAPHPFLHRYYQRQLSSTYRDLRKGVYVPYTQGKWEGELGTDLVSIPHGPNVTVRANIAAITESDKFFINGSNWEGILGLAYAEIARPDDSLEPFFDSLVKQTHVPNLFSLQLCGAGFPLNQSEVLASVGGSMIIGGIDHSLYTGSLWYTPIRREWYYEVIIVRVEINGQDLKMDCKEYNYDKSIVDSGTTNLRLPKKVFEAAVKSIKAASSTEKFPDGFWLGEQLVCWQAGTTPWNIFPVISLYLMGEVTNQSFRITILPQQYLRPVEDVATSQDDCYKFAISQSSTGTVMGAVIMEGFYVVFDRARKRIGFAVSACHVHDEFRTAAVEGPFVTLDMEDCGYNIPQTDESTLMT

SMILES | IC50 [µM]
CCOc1cccc(CN2CCC3(C=CC(=O)N3c3cccc(F)c3)CC2C)c1 (racemic) [Example 1, Racemic (5R,7S),(5S,7R)-8-(3-ethoxybenzyl)-1-(3-fluorophenyl)-7-methyl-1,8-diazaspiro[4.5]dec-3-en-2-one] | 10 to 100
Cc1ccc(Oc2cccc(CN3CCC4(C=CC(=O)N4c4cccc(F)c4)CC3C)c2)cc1 (racemic) [Example 2, Racemic (5R,7S),(5S,7R)-1-(3-fluorophenyl)-7-methyl-8-[3-(4-methylphenoxy)benzyl]-1,8-diazaspiro[4.5]dec-3-en-2-one] | 1 to 10
COc1ccc(Oc2cccc(CN3CCC4(C=CC(=O)N4c4cccc(F)c4)CC3C)c2)cc1 (racemic) [Example 3, Racemic (5R,7S),(5S,7R)-1-(3-fluorophenyl)-8-[3-(4-methoxyphenoxy)benzyl]-7-methyl-1,8-diazaspiro[4.5]dec-3-en-2-one] | 10 to 100
CC1CC2(C=CC(=O)N2c2cccc(F)c2)CCN1Cc1cccc(S(=O)(=O)N2CCCC2)c1 (racemic) [Example 4, Racemic (5R,7S),(5S,7R)-1-(3-fluorophenyl)-7-methyl-8-[3-(pyrrolidin-1-ylsulfonyl)benzyl]-1,8-diazaspiro[4.5]dec-3-en-2-one] | 10 to 100
CC1CC2(C=CC(=O)N2c2cccc(F)c2)CCN1Cc1cccc(COc2cc(F)cc(F)c2)c1 (racemic) [Example 5, Racemic (5R,7S),(5S,7R)-8-{3-[(3,5-difluorophenoxy)methyl]benzyl}-1-(3-fluorophenyl)-7-methyl-1,8-diazaspiro[4.5]dec-3-en-2-one] | 10 to 100
CC1CC2(C=CC(=O)N2c2cccc(F)c2)CCN1Cc1cccc(O)n1 (racemic) [Example 6, Racemic (5R,7S),(5S,7R)-1-(3-fluorophenyl)-8-[(6-hydroxypyridin-2-yl)methyl]-7-methyl-1,8-diazaspiro[4.5]dec-3-en-2-one] | 100 to 300
CC1CC2(C=CC(=O)N2c2cccc(F)c2)CCN1Cc1cccc(C#N)c1 (racemic) [Example 7, Racemic 3-{[(5R,7S),(5S,7R)-1-(3-fluorophenyl)-7-methyl-2-oxo-1,8-diazaspiro[4.5]dec-3-en-8-yl]methyl}benzonitrile] | 10 to 100
COc1cccc(CN2CCC3(C=CC(=O)N3c3cccc(F)c3)CC2C)c1 (racemic) [Example 8, Racemic (5R,7S),(5S,7R)-1-(3-fluorophenyl)-8-(3-methoxybenzyl)-7-methyl-1,8-diazaspiro[4.5]dec-3-en-2-one] | 100 to 300
CC1CC2(C=CC(=O)N2c2cccc(F)c2)CCN1Cc1ccc(O)cc1O (racemic) [Example 9, Racemic (5R,7S),(5S,7R)-8-(2,4-dihydroxybenzyl)-1-(3-fluorophenyl)-7-methyl-1,8-diazaspiro[4.5]dec-3-en-2-one] | 100 to 300
CCCn1nccc1CN1CCC2(C=CC(=O)N2c2cccc(F)c2)CC1C (racemic) [Example 10, Racemic (5R,7S),(5S,7R)-1-(3-fluorophenyl)-7-methyl-8-[(1-propyl-1H-pyrazol-5-yl)methyl]-1,8-diazaspiro[4.5]dec-3-en-2-one] | 10 to 100
CC1CC2(C=CC(=O)N2c2cccc(F)c2)CCN1Cc1ccc2[nH]ccc2c1 (racemic) [Example 11, Racemic (5R,7S),(5S,7R)-1-(3-fluorophenyl)-8-(1H-indol-5-ylmethyl)-7-methyl-1,8-diazaspiro[4.5]dec-3-en-2-one] | 10 to 100
COc1cc(CN2CCC3(C=CC(=O)N3c3cccc(F)c3)CC2C)ccc1O (racemic) [Example 12, Racemic (5R,7S),(5S,7R)-1-(3-fluorophenyl)-8-(4-hydroxy-3-methoxybenzyl)-7-methyl-1,8-diazaspiro[4.5]dec-3-en-2-one] | 1 to 10
COc1cc(CN2CCC3(C=CC(=O)N3c3cccc(F)c3)CC2C)ccc1F (racemic) [Example 13, Racemic (5R,7S),(5S,7R)-8-(4-fluoro-3-methoxybenzyl)-1-(3-fluorophenyl)-7-methyl-1,8-diazaspiro[4.5]dec-3-en-2-one] | 10 to 100
COc1ccc(F)c(CN2CCC3(C=CC(=O)N3c3cccc(F)c3)CC2C)c1 (racemic) [Example 14, Racemic (5R,7S),(5S,7R)-8-(2-fluoro-5-methoxybenzyl)-1-(3-fluorophenyl)-7-methyl-1,8-diazaspiro[4.5]dec-3-en-2-one] | 100 to 300
CC1CC2(C=CC(=O)N2c2cccc(F)c2)CCN1Cc1ccc(O)c(Cl)c1 (racemic) [Example 15, Racemic (5R,7S),(5S,7R)-8-(3-chloro-4-hydroxybenzyl)-1-(3-fluorophenyl)-7-methyl-1,8-diazaspiro[4.5]dec-3-en-2-one] | 1 to 10
CC(C)Oc1cccc(CN2CCC3(C=CC(=O)N3c3cccc(F)c3)CC2C)c1 (racemic) [Example 16, Racemic (5R,7S),(5S,7R)-1(3-fluorophenyl)-8-(3-isopropoxybenzyl)-7-methyl-1,8-diazaspiro[4.5]dec-3-en-2-one] | 1 to 10
CCCOc1cccc(CN2CCC3(C=CC(=O)N3c3cccc(F)c3)CC2C)c1 (racemic) [Example 17, Racemic (5R,7S),(5S,7R)-1-(3-fluorophenyl)-7-methyl-8-(3-propoxybenzyl)-1,8-diazaspiro[4.5]dec-3-en-2-one] | 10 to 100
CC(C)COc1cccc(CN2CCC3(C=CC(=O)N3c3cccc(F)c3)CC2C)c1 (racemic) [Example 18, Racemic (5R,7S),(5S,7R)-1-(3-fluorophenyl)-8-(3-isobutoxybenzyl)-7-rnethyl-1,8-diazaspiro[4.5]dec-3-en-2-one] | 10 to 100
CC1CC2(C=CC(=O)N2c2cccc(F)c2)CCN1Cc1cccc(-c2ccccn2)c1 (racemic) [Example 19, Racemic (5R,7S),(5S,7R)-1-(3-fluorophenyl)-7-methyl-8-(3-pyridin-2-ylbenzyl)-1,8-diazaspiro[4.5]dec-3-en-2-one] | 10 to 100
CC1CC2(C=CC(=O)N2c2cccc(F)c2)CCN1Cc1cccc(OC2CCCC2)c1 (racemic) [Example 20, Racemic (5R,7S),(5S,7R)-8-[3-(cyclopentyloxy)benzyl]-1-(3-fluorophenyl)-7-methyl-1,8-diazaspiro[4.5]dec-3-en-2-one] | 10 to 100
Cc1ccncc1-c1cccc(CN2CCC3(C=CC(=O)N3c3cccc(F)c3)CC2C)c1 (racemic) [Example 21, Racemic (5R,7S),(5S,7R)-1-(3-fluorophenyl)-7-methyl-8-[3-(4-methylpyridin-3-yl)benzyl]-1,8-diazaspiro[4.5]dec-3-en-2-one] | 1 to 10
CC1CC2(C=CC(=O)N2c2cccc(F)c2)CCN1Cc1cccc(Oc2ccccc2)c1 (racemic) [Example 22, Racemic (5R,7S),(5S,7R)-1-(3-fluorophenyl)-7-methyl-8-(3-phenoxybenzyl)-1,8-diazaspiro[4.5]dec-3-en-2-one] | 10 to 100
CC1CC2(C=CC(=O)N2c2cccc(F)c2)CCN1Cc1cc(Br)ccc1F (racemic) [Example 23, Racemic (5R,7S),(5S,7R)-8-(5-bromo-2-fluorobenzyl)-1-(3-fluorophenyl)-7-methyl-1,8-diazaspiro[4.5]dec-3-en-2-one] | 10 to 100
CC1CC2(C=CC(=O)N2c2cccc(F)c2)CCN1Cc1ccc(F)c(Br)c1 (racemic) [Example 24, Racemic (5R,7S),(5S,7R)-8-(3-bromo-4-fluorobenzyl)-1-(3-fluorophenyl)-7-methyl-1,8-diazaspiro[4.5]dec-3-en-2-one] | 100 to 300
CC1CC2(C=CC(=O)N2c2cccc(F)c2)CCN1Cc1cccc(-c2cncc(C#N)c2)c1 (racemic) [Example 25, Racemic 5-(3-{[(5R,7S),(5S,7R)-1-(3-fluorophenyl)-7-methyl-2-oxo-1,8-diazaspiro[4.5]dec-3-en-8-yl]methyl}phenyl)nicotinonitrile] | 10 to 100
CC1CC2(C=CC(=O)N2c2cccc(F)c2)CCN1Cc1nc(-c2ccc(C#N)cc2)cs1 (racemic) [Example 26, Racemic 4-(2-{[(5R,7S),(5S,7R)-1-(3-fluorophenyl)-7-methyl-2-oxo-1,8-diazaspiro[4.5]dec-3-en-8-yl]methyl}-1,3-thiazol-4-yl)benzonitrile] | 10 to 100
CC1CC2(C=CC(=O)N2c2cccc(F)c2)CCN1Cc1nc(-c2cccc(C#N)c2)cs1 (racemic) [Example 27, Racemic 3-(2-{[(5R,7S),(5S,7R)-1-(3-fluorophenyl)-7-methyl-2-oxo-1,8-diazaspiro[4.5]dec-3-en-8-yl]methyl}-1,3-thiazol-4-yl)benzonitrite] | 10 to 100
CC(C)NS(=O)(=O)c1cccc(CN2CCC3(C=CC(=O)N3c3cccc(F)c3)CC2C)c1 (racemic) [Example 28, Racemic 3-{[(5R,7S),(5S,7R)-1-(3-fluorophenyl)-7-methyl-2-oxo-1,8-diazaspiro[4.5]dec-3-en-8-yl]methyl}-N-isopropylbenzenesulfonamide] | 10 to 100
CC1CC2(C=CC(=O)N2c2cccc(F)c2)CCN1Cc1cccc(Oc2ccc(Cl)cc2)c1 (racemic) [Example 29, Racemic (5R,7S),(5S,7R)-8-[3-(4-chlorophenoxy)benzyl]-1-(3-fluorophenyl)-7-methyl-1,8-diazaspiro[4.5]dec-3-en-2-one] | 10 to 100
